The text below walks through data of US9340590B2 (priority 2011, dated 2016).

Molecules are shown by their SMILES. Positions of bridges follow the written chain, without caps; N, C: chain ends. Non-standard residues stand in square brackets, D forms with d. Residues, ends and D or L forms follow the SMILES beside them. Phe(3,4-(OMe)2) = COc1ccc(C[C@H](N)C(=O)O)cc1OC; hArg = N=C(N)NCCCC[C@H](N)C(=O)O

The IC50 is the concentration needed to halve the response being measured. The low end stands for inhibition by little substance, the high end for a need for much substance.

One assay concerns the target hNav1.7 (Homo sapiens, UniProt Q15858). Briefly: cell-based. As to conditions: Nav1.7 Use IC50.
A further assay addresses hNav1.5 (Homo sapiens, UniProt Q14524). Briefly: cell-based.

hNav1.7, sequence (Q15858 whole entry, looked up): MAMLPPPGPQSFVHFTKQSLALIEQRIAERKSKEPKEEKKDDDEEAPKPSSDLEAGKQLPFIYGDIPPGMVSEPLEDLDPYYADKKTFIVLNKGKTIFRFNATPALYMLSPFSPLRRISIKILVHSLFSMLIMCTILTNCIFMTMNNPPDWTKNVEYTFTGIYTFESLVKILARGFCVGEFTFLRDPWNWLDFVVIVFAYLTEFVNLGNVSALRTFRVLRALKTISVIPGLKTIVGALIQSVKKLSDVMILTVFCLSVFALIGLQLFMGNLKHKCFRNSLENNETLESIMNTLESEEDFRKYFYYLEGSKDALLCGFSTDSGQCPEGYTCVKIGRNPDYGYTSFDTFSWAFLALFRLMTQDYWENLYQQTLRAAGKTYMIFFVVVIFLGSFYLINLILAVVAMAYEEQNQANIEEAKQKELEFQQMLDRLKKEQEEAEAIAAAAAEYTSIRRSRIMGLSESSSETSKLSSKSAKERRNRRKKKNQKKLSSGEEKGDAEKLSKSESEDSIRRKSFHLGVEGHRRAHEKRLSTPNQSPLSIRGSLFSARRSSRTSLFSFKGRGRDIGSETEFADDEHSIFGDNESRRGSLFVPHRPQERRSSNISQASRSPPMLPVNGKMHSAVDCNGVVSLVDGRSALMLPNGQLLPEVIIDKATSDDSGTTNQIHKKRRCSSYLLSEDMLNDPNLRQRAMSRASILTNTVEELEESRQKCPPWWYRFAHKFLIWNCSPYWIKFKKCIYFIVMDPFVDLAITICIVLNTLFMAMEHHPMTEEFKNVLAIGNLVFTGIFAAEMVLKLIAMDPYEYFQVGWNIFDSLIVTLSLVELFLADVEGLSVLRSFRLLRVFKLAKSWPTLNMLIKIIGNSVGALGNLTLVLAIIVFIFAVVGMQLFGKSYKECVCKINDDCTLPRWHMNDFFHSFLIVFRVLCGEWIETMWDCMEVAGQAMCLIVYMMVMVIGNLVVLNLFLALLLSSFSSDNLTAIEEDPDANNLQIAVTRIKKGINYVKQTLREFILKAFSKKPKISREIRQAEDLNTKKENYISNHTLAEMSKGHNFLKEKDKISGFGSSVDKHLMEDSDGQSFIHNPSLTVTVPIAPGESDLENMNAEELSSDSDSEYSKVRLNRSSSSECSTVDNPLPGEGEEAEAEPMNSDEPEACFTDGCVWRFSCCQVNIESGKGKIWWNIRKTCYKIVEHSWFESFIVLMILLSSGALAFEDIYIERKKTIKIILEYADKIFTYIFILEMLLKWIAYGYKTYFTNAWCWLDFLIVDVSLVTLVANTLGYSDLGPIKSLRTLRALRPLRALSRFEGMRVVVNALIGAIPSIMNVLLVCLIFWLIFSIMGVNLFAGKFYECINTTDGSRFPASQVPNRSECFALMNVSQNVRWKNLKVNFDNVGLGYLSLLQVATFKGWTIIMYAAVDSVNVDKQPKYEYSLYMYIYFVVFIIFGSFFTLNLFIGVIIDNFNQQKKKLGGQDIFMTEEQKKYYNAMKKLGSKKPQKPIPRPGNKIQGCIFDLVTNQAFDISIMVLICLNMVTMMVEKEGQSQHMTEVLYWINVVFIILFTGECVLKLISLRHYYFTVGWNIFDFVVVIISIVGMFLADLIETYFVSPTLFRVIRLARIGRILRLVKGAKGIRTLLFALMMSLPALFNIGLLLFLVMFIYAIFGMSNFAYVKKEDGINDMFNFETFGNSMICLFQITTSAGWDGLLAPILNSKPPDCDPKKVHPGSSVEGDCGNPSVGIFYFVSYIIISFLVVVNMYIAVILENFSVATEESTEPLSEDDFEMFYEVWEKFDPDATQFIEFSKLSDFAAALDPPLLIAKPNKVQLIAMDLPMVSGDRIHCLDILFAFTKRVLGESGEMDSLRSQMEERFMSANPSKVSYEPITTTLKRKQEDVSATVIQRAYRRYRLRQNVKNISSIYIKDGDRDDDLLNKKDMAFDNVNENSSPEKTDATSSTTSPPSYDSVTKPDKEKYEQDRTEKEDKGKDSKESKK
hNav1.5, sequence (Q14524 whole entry, looked up): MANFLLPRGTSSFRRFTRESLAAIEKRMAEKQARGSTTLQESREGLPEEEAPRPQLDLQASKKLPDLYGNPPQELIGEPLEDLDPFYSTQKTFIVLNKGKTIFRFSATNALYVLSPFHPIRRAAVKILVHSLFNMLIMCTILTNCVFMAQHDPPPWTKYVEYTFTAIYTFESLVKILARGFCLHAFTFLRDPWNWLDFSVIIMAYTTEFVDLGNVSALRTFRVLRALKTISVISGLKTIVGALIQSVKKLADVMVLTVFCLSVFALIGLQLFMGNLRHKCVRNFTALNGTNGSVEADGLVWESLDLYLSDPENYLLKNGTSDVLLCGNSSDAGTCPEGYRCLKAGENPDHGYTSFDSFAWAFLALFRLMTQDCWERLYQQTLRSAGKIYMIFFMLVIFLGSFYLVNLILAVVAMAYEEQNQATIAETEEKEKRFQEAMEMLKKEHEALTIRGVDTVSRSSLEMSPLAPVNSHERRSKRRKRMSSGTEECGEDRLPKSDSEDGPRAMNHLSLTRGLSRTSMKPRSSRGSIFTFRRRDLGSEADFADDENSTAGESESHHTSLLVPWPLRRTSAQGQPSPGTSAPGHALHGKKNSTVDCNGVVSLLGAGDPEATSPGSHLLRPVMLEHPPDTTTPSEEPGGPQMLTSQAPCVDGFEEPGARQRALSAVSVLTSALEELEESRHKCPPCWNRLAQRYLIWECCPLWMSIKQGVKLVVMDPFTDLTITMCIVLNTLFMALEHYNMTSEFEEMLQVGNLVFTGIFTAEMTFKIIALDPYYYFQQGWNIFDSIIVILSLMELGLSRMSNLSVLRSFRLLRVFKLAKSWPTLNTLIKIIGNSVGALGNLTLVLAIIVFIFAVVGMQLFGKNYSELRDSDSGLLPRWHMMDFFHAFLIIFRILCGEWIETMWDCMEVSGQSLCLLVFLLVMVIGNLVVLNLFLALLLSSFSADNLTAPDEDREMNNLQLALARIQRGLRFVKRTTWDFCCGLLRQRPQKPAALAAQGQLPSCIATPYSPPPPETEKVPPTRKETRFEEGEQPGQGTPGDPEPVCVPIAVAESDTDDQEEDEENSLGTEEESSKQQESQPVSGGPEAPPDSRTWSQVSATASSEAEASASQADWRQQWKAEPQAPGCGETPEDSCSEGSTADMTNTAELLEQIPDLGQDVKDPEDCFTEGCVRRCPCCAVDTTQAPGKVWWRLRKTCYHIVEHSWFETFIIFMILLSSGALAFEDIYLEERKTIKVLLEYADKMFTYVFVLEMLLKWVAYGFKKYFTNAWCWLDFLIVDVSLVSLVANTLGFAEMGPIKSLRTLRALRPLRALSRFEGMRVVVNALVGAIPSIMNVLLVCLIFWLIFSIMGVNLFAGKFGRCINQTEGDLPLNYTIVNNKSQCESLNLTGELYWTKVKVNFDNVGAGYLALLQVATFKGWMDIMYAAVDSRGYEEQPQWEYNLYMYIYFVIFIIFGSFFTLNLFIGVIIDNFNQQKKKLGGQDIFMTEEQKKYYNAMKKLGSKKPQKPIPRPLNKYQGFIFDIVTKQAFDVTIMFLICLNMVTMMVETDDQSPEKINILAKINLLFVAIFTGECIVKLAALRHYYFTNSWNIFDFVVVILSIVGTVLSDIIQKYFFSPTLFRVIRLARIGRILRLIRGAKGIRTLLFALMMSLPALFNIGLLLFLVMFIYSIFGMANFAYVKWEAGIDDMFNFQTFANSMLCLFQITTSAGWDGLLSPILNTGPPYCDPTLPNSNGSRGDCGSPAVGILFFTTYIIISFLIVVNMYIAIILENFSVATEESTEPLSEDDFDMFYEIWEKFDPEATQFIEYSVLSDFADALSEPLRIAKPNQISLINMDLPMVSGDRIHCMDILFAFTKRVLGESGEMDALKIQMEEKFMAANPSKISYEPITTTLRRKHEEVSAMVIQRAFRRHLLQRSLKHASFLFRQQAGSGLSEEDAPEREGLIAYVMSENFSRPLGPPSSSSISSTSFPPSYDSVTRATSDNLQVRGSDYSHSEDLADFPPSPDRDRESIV

For `CC[C@H](C)[C@@H]1NC(=O)[C@@H]2CSSC[C@@H]3NC(=O)[C@H](C(C)C)NC(=O)[C@H](CC(C)C)NC(=O)[C@H](CC(N)=O)NC(=O)[C@@H]4CCCN4C(=O)[C@H](CCCNC(=N)N)NC(=O)[C@H](CSSC[C@H](NC(=O)[C@@H](N)CC(=O)O)C(=O)N[C@@H](CC(C)C)C(=O)NCC(=O)N[C@@H](C)C(=O)N[C@@H](CCSC)C(=O)N[C@@H](CCCNC(=N)N)C(=O)N[C@@H](CCCCN)C(=O)N2)NC(=O)[C@H](CSSC[C@@H](C(=O)N[C@@H](CCCCN)C(=O)N[C@@H](Cc2ccc(O)cc2)C(=O)N[C@H](C(=O)N[C@@H](Cc2ccccc2)C(N)=O)C(C)C)NC(=O)[C@H](Cc2c[nH]c4ccccc24)NC(=O)[C@H](CO)NC(=O)[C@H](Cc2c[nH]cn2)NC(=O)[C@H]([C@@H](C)O)NC(=O)[C@H](CCCNC(=N)N)NC(=O)[C@H](CO)NC3=O)NC(=O)[C@H](CCCCN)NC(=O)[C@H](CC(=O)O)NC(=O)[C@H](CC(N)=O)NC(=O)[C@H](CC(=O)O)NC(=O)[C@@H]2CCCN2C1=O` [[Ala5;Ser28]GpTx-1(1-34)] (H-DCLGAMRKCIPDNDKCCRPNLVCSRTHSWCKYVF-NH2; disulfide 2-17, 9-23, 16-30), the IC50 on hNav1.7 is 45 nM; on hNav1.5 it was > 10000 nM.

For `CC[C@H](C)[C@@H]1NC(=O)[C@@H]2CSSC[C@@H]3NC(=O)[C@H](C(C)C)NC(=O)[C@H](CC(C)C)NC(=O)[C@H](CC(N)=O)NC(=O)[C@@H]4CCCN4C(=O)[C@H](CCCNC(=N)N)NC(=O)[C@H](CSSC[C@H](NC(=O)[C@@H](N)CC(=O)O)C(=O)N[C@@H](CC(C)C)C(=O)NCC(=O)N[C@@H](C)C(=O)N[C@@H](CCSC)C(=O)N[C@@H](CCCNC(=N)N)C(=O)N[C@@H](CCCCN)C(=O)N2)NC(=O)[C@H](CSSC[C@@H](C(=O)N[C@@H](CCCCN)C(=O)N[C@@H](Cc2ccc(O)cc2)C(=O)N[C@H](C(=O)N[C@@H](Cc2ccccc2)C(N)=O)C(C)C)NC(=O)[C@H](Cc2c[nH]c4ccccc24)NC(=O)[C@H](CCCCNC(=N)N)NC(=O)[C@H](Cc2c[nH]cn2)NC(=O)[C@H]([C@@H](C)O)NC(=O)[C@H](CCCNC(=N)N)NC(=O)[C@H](CO)NC3=O)NC(=O)[C@H](CCCCN)NC(=O)[C@H](CC(=O)O)NC(=O)[C@H](CC(N)=O)NC(=O)[C@H](CC(=O)O)NC(=O)[C@@H]2CCCN2C1=O` [[Ala5;hArg28]GpTx-1(1-34)] (H-DCLGAMRKCIPDNDKCCRPNLVCSRTH[hArg]WCKYVF-NH2; disulfide 2-17, 9-23, 16-30), the values for the IC50 against hNav1.7 and on hNav1.5 were 14 nM and > 10000 nM, respectively.

Regarding `CC[C@H](C)[C@@H]1NC(=O)[C@@H]2CSSC[C@@H]3NC(=O)[C@H](C)NC(=O)[C@H](CC(C)C)NC(=O)[C@H](CC(N)=O)NC(=O)[C@@H]4CCCN4C(=O)[C@H](CCCNC(=N)N)NC(=O)[C@H](CSSC[C@H](NC(=O)[C@@H](N)CC(=O)O)C(=O)N[C@@H](CC(C)C)C(=O)NCC(=O)N[C@@H](Cc4ccccc4)C(=O)N[C@@H](CCSC)C(=O)N[C@@H](CCCNC(=N)N)C(=O)N[C@@H](CCCCN)C(=O)N2)NC(=O)[C@H](CSSC[C@@H](C(=O)N[C@@H](CCCCN)C(=O)N[C@@H](Cc2ccc(O)cc2)C(=O)N[C@H](C(=O)N[C@@H](Cc2ccccc2)C(N)=O)C(C)C)NC(=O)[C@H](Cc2c[nH]c4ccccc24)NC(=O)[C@H](CCCCN)NC(=O)[C@H](Cc2cnc[nH]2)NC(=O)[C@H]([C@@H](C)O)NC(=O)[C@H](CCCNC(=N)N)NC(=O)[C@H](CO)NC3=O)NC(=O)[C@H](CCCCN)NC(=O)[C@H](CC(=O)O)NC(=O)[C@H](CC(N)=O)NC(=O)[C@H](CC(=O)O)NC(=O)[C@@H]2CCCN2C1=O` [[Ala22]GpTx-1(1-34)] (H-DCLGFMRKCIPDNDKCCRPNLACSRTHKWCKYVF-NH2; disulfide 2-17, 9-23, 16-30), the IC50 at hNav1.7 was 6 nM; against hNav1.5 it was 6200 nM.

For the compound `CC[C@H](C)[C@@H]1NC(=O)[C@@H]2CSSC[C@@H]3NC(=O)[C@H](C(C)C)NC(=O)[C@H](CC(C)C)NC(=O)[C@H](CC(N)=O)NC(=O)[C@@H]4CCCN4C(=O)[C@H](CCCNC(=N)N)NC(=O)[C@H](CSSC[C@H](NC(=O)[C@@H](N)CC(=O)O)C(=O)N[C@@H](CC(C)C)C(=O)NCC(=O)N[C@@H](Cc4ccccc4)C(=O)N[C@@H](CCSC)C(=O)N[C@@H](CCCNC(=N)N)C(=O)N[C@@H](CCCCN)C(=O)N2)NC(=O)[C@H](CSSC[C@@H](C(=O)N[C@@H](CCCCN)C(=O)N[C@@H](Cc2ccc(O)cc2)C(=O)N[C@H](C(=O)N[C@@H](Cc2ccccc2)C(N)=O)C(C)C)NC(=O)[C@H](Cc2c[nH]c4ccccc24)NC(=O)[C@H](CCCCN)NC(=O)[C@H](Cc2cnc[nH]2)NC(=O)[C@H]([C@@H](C)O)NC(=O)[C@H](C)NC(=O)[C@H](CO)NC3=O)NC(=O)[C@H](CCCCN)NC(=O)[C@H](CC(=O)O)NC(=O)[C@H](CC(N)=O)NC(=O)[C@H](CC(=O)O)NC(=O)[C@@H]2CCCN2C1=O` [[Ala25]GpTx-1(1-34)] (H-DCLGFMRKCIPDNDKCCRPNLVCSATHKWCKYVF-NH2; disulfide 2-17, 9-23, 16-30), the IC50 against hNav1.7 turned out to be 12 nM; against hNav1.5, 10000 nM.

With `CC[C@H](C)[C@@H]1NC(=O)[C@@H]2CSSC[C@@H]3NC(=O)[C@H](C(C)C)NC(=O)[C@H](CC(C)C)NC(=O)[C@H](CC(N)=O)NC(=O)[C@@H]4CCCN4C(=O)[C@H](CCCNC(=N)N)NC(=O)[C@H](CSSC[C@H](NC(=O)[C@@H](N)CC(=O)O)C(=O)N[C@@H](CC(C)C)C(=O)N[C@@H](CCCNC(=N)N)C(=O)N[C@@H](CCSC)C(=O)N[C@@H](CCSC)C(=O)N[C@@H](CCCNC(=N)N)C(=O)N[C@@H](CCCCN)C(=O)N2)NC(=O)[C@H](CSSC[C@@H](C(=O)N[C@@H](CCCCN)C(=O)N[C@@H](Cc2ccc(O)cc2)C(=O)N[C@H](C(=O)N[C@@H](Cc2ccccc2)C(N)=O)C(C)C)NC(=O)[C@H](Cc2c[nH]c4ccccc24)NC(=O)[C@H](CCCCN)NC(=O)[C@H](Cc2c[nH]cn2)NC(=O)[C@H]([C@@H](C)O)NC(=O)[C@H](CCCNC(=N)N)NC(=O)[C@H](CO)NC3=O)NC(=O)[C@H](CCCCN)NC(=O)[C@H](CC(=O)O)NC(=O)[C@H](CC(N)=O)NC(=O)[C@H](CC(=O)O)NC(=O)[C@@H]2CCCN2C1=O` [[Arg4;Met5]GpTx-1(1-34)] (H-DCLRMMRKCIPDNDKCCRPNLVCSRTHKWCKYVF-NH2; disulfide 2-17, 9-23, 16-30), the IC50 on hNav1.7 was 29 nM; at hNav1.5, 13200 nM.

On to `CC[C@H](C)[C@@H]1NC(=O)[C@@H]2CSSC[C@@H]3NC(=O)[C@H](C(C)C)NC(=O)[C@H](CC(C)C)NC(=O)[C@H](CC(N)=O)NC(=O)[C@@H]4CCCN4C(=O)[C@H](CCCNC(N)=O)NC(=O)[C@H](CSSC[C@H](NC(=O)[C@@H](N)CC(=O)O)C(=O)N[C@@H](CC(C)C)C(=O)NCC(=O)N[C@@H](Cc4ccccc4)C(=O)N[C@@H](CCSC)C(=O)N[C@@H](CCCNC(=N)N)C(=O)N[C@@H](CCCCN)C(=O)N2)NC(=O)[C@H](CSSC[C@@H](C(=O)N[C@@H](CCCCN)C(=O)N[C@@H](Cc2ccc(O)cc2)C(=O)N[C@H](C(=O)N[C@@H](Cc2ccccc2)C(N)=O)C(C)C)NC(=O)[C@H](Cc2c[nH]c4ccccc24)NC(=O)[C@H](CCCCN)NC(=O)[C@H](Cc2cnc[nH]2)NC(=O)[C@H]([C@@H](C)O)NC(=O)[C@H](CCCNC(=N)N)NC(=O)[C@H](CO)NC3=O)NC(=O)[C@H](CCCCN)NC(=O)[C@H](CC(=O)O)NC(=O)[C@H](CC(N)=O)NC(=O)[C@H](CC(=O)O)NC(=O)[C@@H]2CCCN2C1=O` [[Cit18]GpTx-1(1-34)], for which the IC50 against hNav1.7 was 2 nM; against hNav1.5 it was 10000 nM.

On to `CC[C@H](C)[C@@H]1NC(=O)[C@@H]2CSSC[C@@H]3NC(=O)[C@H](C(C)C)NC(=O)[C@H](CC(C)C)NC(=O)[C@H](CC(N)=O)NC(=O)[C@@H]4CCCN4C(=O)[C@H](CCCNC(=N)N)NC(=O)[C@H](CSSC[C@H](NC(=O)[C@@H](N)CC(=O)O)C(=O)N[C@@H](CC(C)C)C(=O)NCC(=O)N[C@@H](Cc4ccccc4)C(=O)N[C@@H](CCSC)C(=O)N[C@@H](CCCNC(=N)N)C(=O)N[C@@H](CCCCN)C(=O)N2)NC(=O)[C@H](CSSC[C@@H](C(=O)N[C@@H](CCCCN)C(=O)N[C@@H](Cc2ccc(O)cc2)C(=O)N[C@H](C(=O)N[C@@H](Cc2ccccc2)C(N)=O)C(C)C)NC(=O)[C@H](Cc2c[nH]c4ccccc24)NC(=O)[C@H](CCCCN)NC(=O)[C@H](Cc2c[nH]cn2)NC(=O)[C@H]([C@@H](C)O)NC(=O)[C@H](CCCNC(N)=O)NC(=O)[C@H](CO)NC3=O)NC(=O)[C@H](CCCCN)NC(=O)[C@H](CC(=O)O)NC(=O)[C@H](CC(N)=O)NC(=O)[C@H](CC(=O)O)NC(=O)[C@@H]2CCCN2C1=O` [[Cit25]GpTx-1(1-34)], for which the IC50 was 4 nM against hNav1.7 and > 10000 nM against hNav1.5.

As to `CC[C@H](C)[C@@H]1NC(=O)[C@@H]2CSSC[C@@H]3NC(=O)[C@H](C(C)C)NC(=O)[C@H](CC(C)C)NC(=O)[C@H](CC(N)=O)NC(=O)[C@@H]4CCCN4C(=O)[C@H](CCCNC(=N)N)NC(=O)[C@H](CSSC[C@H](NC(=O)[C@@H](N)CC(=O)O)C(=O)N[C@@H](CC(C)C)C(=O)NCC(=O)N[C@@H](Cc4ccc(OC)c(OC)c4)C(=O)N[C@@H](Cc4ccccc4)C(=O)N[C@@H](CCCNC(=N)N)C(=O)N[C@@H](CCCCN)C(=O)N2)NC(=O)[C@H](CSSC[C@@H](C(=O)N[C@@H](CCCCN)C(=O)N[C@@H](Cc2ccc(O)cc2)C(=O)N[C@H](C(=O)N[C@@H](Cc2ccccc2)C(N)=O)C(C)C)NC(=O)[C@H](Cc2c[nH]c4ccccc24)NC(=O)[C@H](CCCCN)NC(=O)[C@H](Cc2c[nH]cn2)NC(=O)[C@H]([C@@H](C)O)NC(=O)[C@H](CCCNC(=N)N)NC(=O)[C@H](CO)NC3=O)NC(=O)[C@H](CCCCN)NC(=O)[C@H](CC(=O)O)NC(=O)[C@H](CC(N)=O)NC(=O)[C@H](CC(=O)O)NC(=O)[C@@H]2CCCN2C1=O` [[DiMeO-F5;Phe6]GpTx-1(1-34)] (H-DCLG[Phe(3,4-(OMe)2)]FRKCIPDNDKCCRPNLVCSRTHKWCKYVF-NH2; disulfide 2-17, 9-23, 16-30), the IC50 was 33 nM against hNav1.7 and > 10000 nM against hNav1.5.
